Reference: patent US20040058898A1, “Pharmaceutical composition for alleviating the violence of a mammal comprising nortestosterone derivatives” (priority 2002, published 2004)
“Also recorded” adds a separate entry of the source.

What was measured:
Assay type in all cases: in vivo
[1] = system: male ostriches which violently behaved, cried and did not take feed; test: Alleviation of the violence and stimulation of the appetite in male ostrich; conditions: male ostrich 100 kg, intramuscular
Source text: (§1) After administration, their behaviors and appetites were observed.

[2] = system: male dogs which violently behaved, cried and did not take feed; test: Alleviation of the violence and stimulation of the appetite in male dog; conditions: male dog 40 kg, intramuscular
Source text: as §1

[3] = system: male cats which violently behaved, cried and did not take feed; test: Alleviation of the violence and stimulation of the appetite in male cat; conditions: male cat 1 kg, intramuscular
Source text: as §1

[4] = system: male horses which violently behaved, cried and did not take feed; test: Alleviation of the violence and stimulation of the appetite in male horse; conditions: male horse 200 kg, intramuscular
Source text: as §1

[5] = system: male goats which violently behaved, cried and did not take feed; test: Alleviation of the violence and stimulation of the appetite in male goat; conditions: male goat 40 kg, intramuscular
Source text: as §1

[6] = system: male lion which violently behaved, cried and did not take feed; test: Alleviation of the violence and stimulation of the appetite in male lion
[7] = 100 mg (1 mg per kg), Experimental Example 1
[8] = 40 mg (1 mg per kg), Experimental Example 20
[9] = 1 mg per Table 5 (1 mg per kg; 100 mg [sic]), Experimental Example 22
[10] = 200 mg (1 mg per kg), Experimental Example 24
[11] = 40 mg (1 mg per kg), Experimental Example 26
[12] = 40 mg (1 mg per kg), Experimental Example 26, listed as 17-decanoate-4-estren-3-one
[13] = male lion 100 kg, 100 mg (1 mg per kg), Experimental Example 28
[14] = male lion 100 kg, 10, 20, 50, 100, 150, 200, 500 and 1000 mg (0.1 to 10 mg per kg), Experimental Example 29

Structure (SMILES): CCCCCCCCCC(=O)O[C@H]1CC[C@H]2[C@@H]3CCC4=CC(=O)CC[C@@H]4[C@H]3CC[C@]12C [17β-decanoate-4-estren-3-one]
- Violence and appetite, After administration: appetite ([1]; 10 mg (0.1 mg per kg), Experimental Example 2): stimulated appetite
- Violence and appetite, After administration: appetite ([1]; 20 mg (0.2 mg per kg), Experimental Example 2): stimulated appetite
- Violence and appetite, After administration: appetite ([1]; 50 mg (0.5 mg per kg), Experimental Example 2): stimulated appetite
- Violence and appetite, After administration: appetite [1, 7]: appetite stimulated; also recorded: stimulated appetite
- Violence and appetite, After administration: violence [1, 7]: violence of estrus alleviated
- feed intake after administration [1, 7]: increased feed intake
- Violence and appetite, After administration: appetite ([1]; 100 mg (1.0 mg per kg), Experimental Example 2): stimulated appetite
- Violence and appetite, After administration: appetite ([1]; 150 mg (1.5 mg per kg), Experimental Example 2): stimulated appetite
- Violence and appetite, After administration: appetite ([1]; 200 mg (2.0 mg per kg), Experimental Example 2): stimulated appetite
- Violence and appetite, After administration: appetite ([1]; 500 mg (5.0 mg per kg), Experimental Example 2): stimulated appetite
- Violence and appetite, After administration: appetite ([1]; 1000 mg (10 mg per kg), Experimental Example 2): stimulated appetite
- Violence and appetite, After administration: appetite ([2]; 4 mg (0.1 mg per kg), Experimental Example 21): stimulated appetite
- Violence and appetite, After administration: appetite ([2]; 8 mg (0.2 mg per kg), Experimental Example 21): stimulated appetite
- Violence and appetite, After administration: appetite ([2]; 20 mg (0.5 mg per kg), Experimental Example 21): stimulated appetite
- Violence and appetite, After administration: appetite [2, 8]: appetite stimulated; also recorded: stimulated appetite
- Violence and appetite, After administration: violence [2, 8]: violence of estrus alleviated
- feed intake after administration [2, 8]: increased feed intake
- Violence and appetite, After administration: appetite ([2]; 40 mg (1.0 mg per kg), Experimental Example 21): stimulated appetite
- Violence and appetite, After administration: appetite ([2]; 60 mg (1.5 mg per kg), Experimental Example 21): stimulated appetite
- Violence and appetite, After administration: appetite ([2]; 80 mg (2.0 mg per kg), Experimental Example 21): stimulated appetite
- Violence and appetite, After administration: appetite ([2]; 200 mg (5.0 mg per kg), Experimental Example 21): stimulated appetite
- Violence and appetite, After administration: appetite ([2]; 400 mg (10 mg per kg), Experimental Example 21): stimulated appetite
- Violence and appetite, After administration: appetite ([3]; 0.1 mg (0.1 mg per kg), Experimental Example 23): stimulated appetite
- Violence and appetite, After administration: appetite ([3]; 0.2 mg (0.2 mg per kg), Experimental Example 23): stimulated appetite
- Violence and appetite, After administration: appetite ([3]; 0.5 mg (0.5 mg per kg), Experimental Example 23): stimulated appetite
- Violence and appetite, After administration: appetite ([3]; 1 mg (1.0 mg per kg), Experimental Example 23): stimulated appetite
- Violence and appetite, After administration: appetite [3, 9]: appetite stimulated; also recorded: stimulated appetite
- Violence and appetite, After administration: violence [3, 9]: violence of estrus alleviated
- feed intake after administration [3, 9]: increased feed intake
- Violence and appetite, After administration: appetite ([3]; 1.5 mg (1.5 mg per kg), Experimental Example 23): stimulated appetite
- Violence and appetite, After administration: appetite ([3]; 2 mg (2.0 mg per kg), Experimental Example 23): stimulated appetite
- Violence and appetite, After administration: appetite ([3]; 5 mg (5.0 mg per kg), Experimental Example 23): stimulated appetite
- Violence and appetite, After administration: appetite ([3]; 10 mg (10 mg per kg), Experimental Example 23): stimulated appetite
- Violence and appetite, After administration: appetite ([4]; 20 mg (0.1 mg per kg), Experimental Example 25): stimulated appetite
- Violence and appetite, After administration: appetite ([4]; 40 mg (0.2 mg per kg), Experimental Example 25): stimulated appetite
- Violence and appetite, After administration: appetite ([4]; 100 mg (0.5 mg per kg), Experimental Example 25): stimulated appetite
- Violence and appetite, After administration: appetite [4, 10]: appetite stimulated; also recorded: stimulated appetite
- Violence and appetite, After administration: violence [4, 10]: violence of estrus alleviated
- feed intake after administration [4, 10]: increased feed intake
- Violence and appetite, After administration: appetite ([4]; 200 mg (1.0 mg per kg), Experimental Example 25): stimulated appetite
- Violence and appetite, After administration: appetite ([4]; 300 mg (1.5 mg per kg), Experimental Example 25): stimulated appetite
- Violence and appetite, After administration: appetite ([4]; 400 mg (2.0 mg per kg), Experimental Example 25): stimulated appetite
- Violence and appetite, After administration: appetite ([4]; 1000 mg (5.0 mg per kg), Experimental Example 25): stimulated appetite
- Violence and appetite, After administration: appetite ([4]; 2000 mg (10 mg per kg), Experimental Example 25): stimulated appetite
- Violence and appetite, After administration: appetite ([5]; 4 mg (0.1 mg per kg), Experimental Example 27): stimulated appetite
- Violence and appetite, After administration: appetite ([5]; 8 mg (0.2 mg per kg), Experimental Example 27): stimulated appetite
- Violence and appetite, After administration: appetite ([5]; 20 mg (0.5 mg per kg), Experimental Example 27): stimulated appetite
- Violence and appetite, After administration: appetite [5, 11]: stimulated appetite
- feed intake after administration [5, 11]: increased feed intake
- Violence and appetite, After administration: appetite [5, 12]: appetite stimulated
- Violence and appetite, After administration: violence [5, 12]: violence of estrus alleviated
- Violence and appetite, After administration: appetite ([5]; 40 mg (1.0 mg per kg), Experimental Example 27): stimulated appetite
- Violence and appetite, After administration: appetite ([5]; 60 mg (1.5 mg per kg), Experimental Example 27): stimulated appetite
- Violence and appetite, After administration: appetite ([5]; 80 mg (2.0 mg per kg), Experimental Example 27): stimulated appetite
- Violence and appetite, After administration: appetite ([5]; 200 mg (5.0 mg per kg), Experimental Example 27): stimulated appetite
- Violence and appetite, After administration: appetite ([5]; 400 mg (10 mg per kg), Experimental Example 27): stimulated appetite
- appetite after intramuscular injection [6, 13]: appetite stimulated
- feed intake after administration [6, 13]: increased feed intake
- violence of estrus after intramuscular injection [6, 13]: violence of estrus alleviated
- appetite after intramuscular injection [6, 14]: appetite stimulated
- feed intake after administration [6, 14]: increased feed intake
- violence of estrus after intramuscular injection [6, 14]: violence of estrus alleviated
